biological target: 5-HT2A receptors (Rattus norvegicus, UniProt P14842); assay: in-vitro affinity to 5-HT2A receptors, displacement of [3H]ketanserine (Example A1); assay type: binding; conditions: read-out: HT2A IC50
Source text: The 5-HT2A receptors are exposed both to [^3H]ketanserine (a substance which is known for its affinity to the receptor) and also to the test compound. The decrease in the affinity of [^3H]ketanserine to the receptor is an indication of the affinity of the test substance to the 5-HT2A receptor.

Chain of 5-HT2A receptors (P14842 whole entry): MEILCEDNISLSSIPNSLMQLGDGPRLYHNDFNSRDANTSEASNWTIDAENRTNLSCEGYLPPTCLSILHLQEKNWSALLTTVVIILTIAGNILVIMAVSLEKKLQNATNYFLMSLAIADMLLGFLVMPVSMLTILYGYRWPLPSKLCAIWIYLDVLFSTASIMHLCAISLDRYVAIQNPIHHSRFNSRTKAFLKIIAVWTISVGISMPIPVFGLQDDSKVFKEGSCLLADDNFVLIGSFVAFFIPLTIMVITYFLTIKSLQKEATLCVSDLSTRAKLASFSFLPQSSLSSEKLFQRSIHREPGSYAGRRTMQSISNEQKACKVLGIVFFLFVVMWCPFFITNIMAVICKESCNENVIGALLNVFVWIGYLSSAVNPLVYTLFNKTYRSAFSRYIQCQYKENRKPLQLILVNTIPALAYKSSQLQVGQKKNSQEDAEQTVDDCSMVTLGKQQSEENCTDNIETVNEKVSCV

Compound | IC50 [nM]
CN1CCN(Cc2cnn(-c3ccc(-c4ccc(F)cc4)cc3)c2-c2cccc(F)c2)CC1 [Example 911, 1-[1-(4′-Fluorobiphenyl-4-yl)-5-(3-fluoro-phenyl)-1H-pyrazol-4-ylmethyl]-4-methyl-piperazine] | 19
CN1CCN(Cc2cnn(-c3ccc(-c4cccc(F)c4F)cc3)c2-c2ccccc2F)CC1 [Example 967, 1-[1-(2′,3′-Difluorobiphenyl-4-yl)-5-(2-fluoro-phenyl)-1H-pyrazol-4-ylmethyl]-4-methyl-piperazine] | 73
Fc1ccc(-c2ccc(-n3ncc(CN(Cc4cnn(-c5ccc(-c6ccc(F)cc6)cc5)c4-c4ccco4)C4CC4)c3-c3ccco3)cc2)cc1 [Example 982, Cyclopropylbis-[1-(4′-fluorobiphenyl-4-yl)-5-furan-2-yl-1H-pyrazol-4-ylmethyl]amine] | 110
Fc1ccccc1-c1c(CNC2C3CNCC32)cnn1-c1ccc(-c2ccccc2)cc1 (stereo not shown) [Example 1041, (3-Azabicyclo[3.1.0]hex-6-yl)-[1-biphenyl-4-yl-5-(2-fluorophenyl)-1H-pyrazol-4-ylmethyl]-amine] | 320
Fc1ccccc1-c1c(CN2CCCCCC2)cnn1-c1ccc(-c2ccccc2)cc1 [Example 948, 1-[1-Biphenyl-4-yl-5-(2-fluorophenyl)-1H-pyrazol-4-ylmethyl]azepan] | 48

Next, values leading:

IC50 [nM] | Compound
240 | Cc1cc(CNCc2cnn(-c3ccc(-c4ccccc4)cc3)c2-c2ccccc2)no1 [Example 1023, (1-Biphenyl-4-yl-5-phenyl-1H-pyrazol-4-yl-methyl)-(5-methylisoxazol-3-ylmethyl)amine]
57 | CCc1ccc(-c2ccc(-n3ncc(CN4CCN(C)CC4)c3-c3ccccc3F)cc2)cc1 [Example 956, 1-[1-(4′-Ethylbiphenyl-4-yl)-5-(2-fluorophenyl)-1H-pyrazol-4-ylmethyl]-4-methylpiperazine]
180 | Fc1ccc(F)c(-c2ccc(-n3ncc(CNc4cc[nH]n4)c3-c3ccccc3F)cc2)c1 [Example 1005, [1-(2′,5′-Difluorobiphenyl-4-yl)-5-(2-fluoro-phenyl)-1H-pyrazol-4-ylmethyl]-(1H-pyrazol-3-yl)amine]
53 | Fc1ccc(CCN2CCN(Cc3cnn(-c4ccccn4)c3-c3ccccc3F)CC2)cc1 [Example 950, 1-[2-(4-Fluorophenyl)ethyl]-4-[5-(2-fluoro-phenyl)-1-pyridin-2-yl-1H-pyrazol-4-ylmethyl]-piperazine]
23 | Fc1ccccc1-c1c(CCCN2CCOCC2)cnn1-c1ccc(-c2ccccc2)cc1 [Example 917, 4-{3-[1-Biphenyl-4-yl-5-(2-fluoro-phenyl)-1H-pyrazol-4-yl]propyl}morpholine]

same assay, conditions: target not given; description names affinity to 5-HT2A receptors; read-out: IC50

Compound | IC50 [nM]
CN1CCN(CC(O)CC(O)c2cnn(-c3ccc(-c4ccccc4)cc3)c2-c2ccccc2F)CC1 (stereo not shown) [(149), 1-[1-Biphenyl-4-yl-5-(2-fluorophenyl)-1H-pyrazol-4-yl]-4-(4-methylpiperazin-1-yl)butane-1,3-diol] | 620
Fc1ccc(-c2ccc(-n3ncc(CNc4cccnc4)c3-c3ccccc3F)cn2)cc1 [(144), {5-(2-Fluorophenyl)-1-[6-(4-fluorophenyl)pyridin-3-yl]-1H-pyrazol-4-ylmethyl}pyridin-3-ylamine] | 890
CN1CCN(Cc2cnn(-c3ccc(-c4ccsc4)cc3)c2-c2ccccc2)CC1 [(98), 1-Methyl-4-[5-phenyl-1-(4-thiophen-3-ylphenyl)-1H-pyrazol-4-ylmethyl]piperazine] | 31
COc1ccccc1-c1c(CN2CCN(C)CC2)cnn1-c1ccc(-c2ccsc2)cc1 [(105), 1-[5-(2-Methoxyphenyl)-1-(4-thiophen-3-ylphenyl)-1H-pyrazol-4-ylmethyl]-4-methylpiperazine] | 460
COCCNCc1cnn(-c2ccc(-c3ccccc3)cc2)c1-c1ccccc1F [(78), [1-Biphenyl-4-yl-5-(2-fluorophenyl)-1H-pyrazol-4-ylmethyl]-(2-methoxyethyl)amine] | 16
COc1ccccc1-c1c(CN2CCN(C)CC2)cnn1-c1ccc(-c2ccccc2F)cc1 [(104), 1-[1-(2′-Fluorobiphenyl-4-yl)-5-(2-methoxyphenyl)-1H-pyrazol-4-ylmethyl]-4-methylpiperazine] | 52
CN1CCN(Cc2cnn(-c3ccc(-c4ccsc4)cc3)c2-c2ccco2)CC1 [(70), 1-[5-Furan-2-yl-1-(4-thiophen-3-ylphenyl)-1H-pyrazol-4-ylmethyl]-4-methylpiperazine] | 4.5
CN(CCO)Cc1cnn(-c2ccc(-c3ccccc3)cc2)c1-c1ccccc1F [(92), 2-{[1-Biphenyl-4-yl-5-(2-fluorophenyl)-1H-pyrazol-4-ylmethyl]-methylamino}ethanol] | 16
CN1CCN(Cc2cnn(-c3ccc(-c4ccsc4)cc3)c2-c2ccccc2F)CC1 [(66), 1-[5-(2-Fluorophenyl)-1-(4-thiophen-3-ylphenyl)-1H-pyrazol-4-ylmethyl]-4-methylpiperazine] | 14
Cc1cc(CNCc2cnn(-c3ccc(-c4ccccc4)cc3)c2-c2ccccc2)no1 [(181), (1-Biphenyl-4-yl-5-phenyl-1H-pyrazol-4-ylmethyl)-(5-methylisoxazol-3-ylmethyl)amine] | 240
CN1CCN(NCc2cnn(-c3ccc(-c4ccccc4)cc3)c2-c2ccccc2F)CC1 [(40), [1-Biphenyl-4-yl-5-(2-fluorophenyl)-1H-pyrazol-4-ylmethyl]-(4-methylpiperazin-1-yl)amine] | 14
Fc1ccccc1-c1c(CNC2CN3CCC2CC3)cnn1-c1ccc(-c2ccccc2)cc1 (stereo not shown) [(107), (1-Azabicyclo[2.2.2]oct-3-yl)-[1-biphenyl-4-yl-5-(2-fluorophenyl)-1H-pyrazol-4-ylmethyl]amine] | 140
Fc1ccccc1-c1c(CCN2CCOCC2)cnn1-c1ccc(-c2ccccc2)cc1 [(185), 4-{2-[1-Biphenyl-4-yl-5-(2-fluorophenyl)-1H-pyrazol-4-yl]ethyl}morpholine] | 40
CCN1CCCC1CNCc1cnn(-c2ccc(-c3ccccc3)cc2)c1-c1ccccc1F (stereo not shown) [(88), [1-Biphenyl-4-yl-5-(2-fluorophenyl)-1H-pyrazol-4-ylmethyl]-(1-ethylpyrrolidin-2-ylmethyl)amine] | 20
Fc1ccccc1-c1c(CN2CCc3ccccc3C2)cnn1-c1ccc(-c2ccccc2)cc1 [(36), 2-[1-Biphenyl-4-yl-5-(2-fluorophenyl)-1H-pyrazol-4-ylmethyl]-1,2,3,4-tetrahydroisoquinoline] | 70

Other lines, results leading:

IC50 [nM] | Compound
230 | CN(C)C1CCN(Cc2cnn(-c3ccc(-c4ccccc4)cc3)c2-c2ccccc2F)C1 (stereo not shown) [(167), {1-[1-Biphenyl-4-yl-5-(2-fluorophenyl)-1H-pyrazol-4-ylmethyl]-pyrrolidin-3-yl}dimethylamine]
160 | Fc1ccccc1-c1c(CN2CC3CC2CO3)cnn1-c1ccc(-c2ccccc2)cc1 (stereo not shown) [(82), 5-[1-Biphenyl-4-yl-5-(2-fluorophenyl)-1H-pyrazol-4-ylmethyl]-2-oxa-5-azabicyclo[2.2.1]heptane]
1100 | CN1CCN(Cc2cnn(-c3ccc(-c4ccsc4)cc3)c2-c2ccc(F)cc2)CC1 [(102), 1-[5-(4-Fluorophenyl)-1-(4-thiophen-3-ylphenyl)-1H-pyrazol-4-ylmethyl]-4-methylpiperazine]
140 | CN1CCN(Cc2cnn(-c3ccc(-c4ccccc4)nc3)c2-c2cccnc2)CC1 [(198), 1-Methyl-4-[1-(6-phenylpyridin-3-yl)-5-pyridin-3-yl-1H-pyrazol-4-ylmethyl]piperazine]
590 | Nc1ccc(NCc2cnn(-c3ccc(-c4ccc(F)cc4)nc3)c2-c2ccccc2F)cn1 [(194), N^5-{5-(2-Fluorophenyl)-1-[6-(4-fluorophenyl)pyridin-3-yl]-1H-pyrazol-4-ylmethyl}pyridine-2,5-diamine]
1300 | Nc1ncc(NCc2cnn(-c3ccc(-c4ccc(F)cc4)nc3)c2-c2ccccc2F)cn1 [(197)]
440 | CN(C)CCN(C)Cc1cnn(-c2ccc(-c3ccccc3)nc2)c1-c1ccccc1F [(127), N-[5-(2-Fluorophenyl)-1-(6-phenylpyridin-3-yl)-1H-pyrazol-4-ylmethyl]-N,N′,N′-trimethylethane-1,2-diamine]
1200 | OCc1cnn(-c2ccc(-c3ccccc3)cc2)c1-c1ccccc1F [(21), [1-Biphenyl-4-yl-5-(2-fluorophenyl)-1H-pyrazol-4-yl]-methanol]
6000 | O=C1NOCC1NCc1cnn(-c2ccc(-c3ccccc3)cc2)c1-c1ccccc1F (stereo not shown) [(131), 4-{[1-Biphenyl-4-yl-5-(2-fluorophenyl)-1H-pyrazol-4-ylmethyl]-amino}isoxazolidin-3-one]
370 | Fc1ccc(F)c(-c2ccc(-n3ncc(CNCC4CCCO4)c3-c3ccccc3F)cc2)c1 (stereo not shown) [(122), [1-(2′,5′-Difluorobiphenyl-4-yl)-5-(2-fluorophenyl)-1H-pyrazol-4-ylmethyl](tetrahydrofuran-2-ylmethyl)amine]
690 | CCOC(=O)CN1CCN(Cc2cnn(-c3ccc(-c4ccccc4)cc3)c2-c2ccccc2F)CC1 [(73), Ethyl {4-[1-biphenyl-4-yl-5-(2-fluorophenyl)-1H-pyrazol-4-ylmethyl]piperazin-1-yl}acetate]
280 | N#CCNCc1cnn(-c2ccc(-c3ccccc3)cc2)c1-c1ccccc1F [(124), {[1-Biphenyl-4-yl-5-(2-fluorophenyl)-1H-pyrazol-4-ylmethyl]-amino}acetonitrile]
1600 | CCOC(=O)CNCc1cnn(-c2ccc(-c3ccccc3F)nc2)c1-c1ccccc1F [(148), Ethyl ({5-(2-fluorophenyl)-1-[6-(2-fluorophenyl)pyridin-3-yl]-1H-pyrazol-4-ylmethyl}amino)acetate]
230 | CCNC(=O)CN1CCN(Cc2cnn(-c3ccc(-c4ccccc4)cc3)c2-c2ccccc2F)CC1 [(139), 2-{4-[1-Biphenyl-4-yl-5-(2-fluorophenyl)-1H-pyrazol-4-ylmethyl]piperazin-1-yl}-N-ethylacetamide]
560 | Fc1ccccc1-c1c(CN2CCC(N3CCOCC3)CC2)cnn1-c1ccc(-c2ccccc2)cc1 [(25), 4-{1-[1-Biphenyl-4-yl-5-(2-fluorophenyl)-1H-pyrazol-4-ylmethyl]piperidin-4-yl}morpholine]

— patent publication US20060264419A1 (priority 2003, published 2006)
